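Grown in 96-well plates, cells were treated for 48 hours with each compound at five concentrations. Insufficient inhibition: endpoint recorded as highest concentration tested. Abbreviation: GI50, concentration required for 50% inhibition of growth. TGI marks complete inhibition of growth.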
Key:
Test in all cases: NCI-60 cell line screen, 48 h
SW-620 colon = tested on: SW-620 colon
SK-OV-3 ovarian = tested on: SK-OV-3 ovarian
HL-60(TB) leukemia = tested on: HL-60(TB) leukemia
HOP-62 NSCLC = tested on: HOP-62 NSCLC
MDA-MB-435 = tested on: MDA-MB-435
COLO 205 colon = tested on: COLO 205 colon
U251 CNS = tested on: U251 CNS
T-47D breast = tested on: T-47D breast
SN12C renal = tested on: SN12C renal
A498 renal = tested on: A498 renal
KM12 colon = tested on: KM12 colon
SK-MEL-28 melanoma = tested on: SK-MEL-28 melanoma
NCI/ADR-RES ovarian = tested on: NCI/ADR-RES ovarian
MDA-MB-231 breast = tested on: MDA-MB-231 breast
786-0 renal = tested on: 786-0 renal
UACC-257 melanoma = tested on: UACC-257 melanoma
NCI-H460 lung = tested on: NCI-H460 lung
TK-10 renal = tested on: TK-10 renal
SNB-75 CNS = tested on: SNB-75 CNS
OVCAR-3 ovarian = tested on: OVCAR-3 ovarian
HCT-116 colon = tested on: HCT-116 colon
UACC-62 melanoma = tested on: UACC-62 melanoma
SF-539 CNS = tested on: SF-539 CNS
EKVX NSCLC = tested on: EKVX NSCLC
HOP-92 NSCLC = tested on: HOP-92 NSCLC
NCI-H23 lung = tested on: NCI-H23 lung
SF-295 CNS = tested on: SF-295 CNS
OVCAR-5 ovarian = tested on: OVCAR-5 ovarian
SNB-19 CNS = tested on: SNB-19 CNS
SK-MEL-2 melanoma = tested on: SK-MEL-2 melanoma
RXF 393 renal = tested on: RXF 393 renal
IGROV1 ovarian = tested on: IGROV1 ovarian
NCI-H226 lung = tested on: NCI-H226 lung
DU-145 prostate = tested on: DU-145 prostate
HCC-2998 colon = tested on: HCC-2998 colon
HS 578T breast = tested on: HS 578T breast
PC-3 prostate = tested on: PC-3 prostate
ACHN renal = tested on: ACHN renal
RPMI-8226 leukemia = tested on: RPMI-8226 leukemia
HCT-15 colon = tested on: HCT-15 colon
OVCAR-8 ovarian = tested on: OVCAR-8 ovarian
SK-MEL-5 melanoma = tested on: SK-MEL-5 melanoma
CAKI-1 renal = tested on: CAKI-1 renal
LOX IMVI melanoma = tested on: LOX IMVI melanoma
A549 NSCLC = tested on: A549 NSCLC
BT-549 breast = tested on: BT-549 breast
HT29 colon = tested on: HT29 colon
M14 melanoma = tested on: M14 melanoma
OVCAR-4 ovarian = tested on: OVCAR-4 ovarian
MOLT-4 leukemia = tested on: MOLT-4 leukemia
CCRF-CEM leukemia = tested on: CCRF-CEM leukemia
NCI-H522 lung = tested on: NCI-H522 lung
SF-268 CNS = tested on: SF-268 CNS
MCF7 breast = tested on: MCF7 breast
UO-31 renal = tested on: UO-31 renal
SR leukemia = tested on: SR leukemia
MALME-3M melanoma = tested on: MALME-3M melanoma
K-562 leukemia = tested on: K-562 leukemia

With NC(=O)c1c(Br)n(C2OC(CO)C(O)C2O)c2ncnc(N)c12 (stereo unspecified) the GI50 (SW-620 colon) was 0.545 µM, the TGI (SW-620 colon) was 9.87 µM and the GI50 (SK-OV-3 ovarian) was 1.05 µM. For the same compound, the TGI (SK-OV-3 ovarian) was 9.95 µM, the GI50 (HL-60(TB) leukemia) was 0.702 µM and the TGI (HL-60(TB) leukemia) was 4.11 µM. For the same compound, the GI50 (HOP-62 NSCLC) was 2.86 µM, the TGI (HOP-62 NSCLC) was 25.3 µM and the GI50 (MDA-MB-435) was 1.73 µM. It also gave a TGI (MDA-MB-435) of 7.68 µM, a GI50 (COLO 205 colon) of 1.45 µM and a TGI (COLO 205 colon) of 6.07 µM. For the same compound, the GI50 (U251 CNS) was 2.92 µM, the TGI (U251 CNS) was greater than 86.4 µM and the GI50 (T-47D breast) was 0.132 µM. The TGI (T-47D breast) was 2.88 µM, the GI50 (SN12C renal) was 1.61 µM and the TGI (SN12C renal) was 12.9 µM. The GI50 (A498 renal) was 3.09 µM, the TGI (A498 renal) was 15.6 µM and the GI50 (KM12 colon) was 1.91 µM. It also gave a TGI (KM12 colon) of 12.3 µM, a GI50 (SK-MEL-28 melanoma) of 3.02 µM and a TGI (SK-MEL-28 melanoma) of 13.8 µM. For the same compound, the GI50 (NCI/ADR-RES ovarian) was 1.34 µM, the TGI (NCI/ADR-RES ovarian) was 12.5 µM and the GI50 (MDA-MB-231 breast) was 3.55 µM. For the same compound, the TGI (MDA-MB-231 breast) was 29.1 µM, the GI50 (786-0 renal) was 3.04 µM and the TGI (786-0 renal) was 41.9 µM. For the same compound, the GI50 (UACC-257 melanoma) was 2.99 µM, the TGI (UACC-257 melanoma) was 18.4 µM and the GI50 (NCI-H460 lung) was 1.8 µM. The TGI (NCI-H460 lung) was 12.5 µM, the GI50 (TK-10 renal) was 0.839 µM and the TGI (TK-10 renal) was 13.7 µM. For the same compound, the GI50 (SNB-75 CNS) was 1.92 µM, the TGI (SNB-75 CNS) was 18 µM and the GI50 (OVCAR-3 ovarian) was 1.24 µM. The TGI (OVCAR-3 ovarian) was 5.59 µM, the GI50 (HCT-116 colon) was 0.71 µM and the TGI (HCT-116 colon) was greater than 53.4 µM. The GI50 (UACC-62 melanoma) was 1.63 µM, the TGI (UACC-62 melanoma) was 3.83 µM and the GI50 (SF-539 CNS) was 2.43 µM. It also gave a TGI (SF-539 CNS) of 8.73 µM, a GI50 (EKVX NSCLC) of 4.31 µM and a TGI (EKVX NSCLC) of 59.8 µM. It also gave a GI50 (HOP-92 NSCLC) of 0.45 µM, a TGI (HOP-92 NSCLC) of 7.08 µM and a GI50 (NCI-H23 lung) of 2.15 µM. It also gave a TGI (NCI-H23 lung) of 13 µM, a GI50 (SF-295 CNS) of 2.78 µM and a TGI (SF-295 CNS) of 18.7 µM. It also gave a GI50 (OVCAR-5 ovarian) of 1.39 µM, a TGI (OVCAR-5 ovarian) of 45.5 µM and a GI50 (SNB-19 CNS) of 5.16 µM. For the same compound, the TGI (SNB-19 CNS) was 59.8 µM, the GI50 (SK-MEL-2 melanoma) was 1.82 µM and the TGI (SK-MEL-2 melanoma) was 5.62 µM. The GI50 (RXF 393 renal) was 1.37 µM, the TGI (RXF 393 renal) was 12.9 µM and the GI50 (IGROV1 ovarian) was 0.609 µM. For the same compound, the TGI (IGROV1 ovarian) was 3.95 µM, the GI50 (NCI-H226 lung) was 4.78 µM and the TGI (NCI-H226 lung) was 57.6 µM. The GI50 (DU-145 prostate) was 0.544 µM, the TGI (DU-145 prostate) was 8.86 µM and the GI50 (HCC-2998 colon) was 1.71 µM. For the same compound, the TGI (HCC-2998 colon) was 13.2 µM, the GI50 (HS 578T breast) was 1.48 µM and the TGI (HS 578T breast) was 9.36 µM. It also gave a GI50 (PC-3 prostate) of 0.593 µM, a TGI (PC-3 prostate) of 7.57 µM and a GI50 (ACHN renal) of 0.749 µM. The TGI (ACHN renal) was 10.4 µM, the GI50 (RPMI-8226 leukemia) was 1.87 µM and the TGI (RPMI-8226 leukemia) was 7.51 µM. The GI50 (HCT-15 colon) was 0.427 µM, the TGI (HCT-15 colon) was 7.03 µM and the GI50 (OVCAR-8 ovarian) was 0.763 µM. For the same compound, the TGI (OVCAR-8 ovarian) was 12.3 µM, the GI50 (SK-MEL-5 melanoma) was 2.65 µM and the TGI (SK-MEL-5 melanoma) was 9.85 µM. For the same compound, the GI50 (CAKI-1 renal) was 0.369 µM, the TGI (CAKI-1 renal) was 2.43 µM and the GI50 (LOX IMVI melanoma) was 0.684 µM. The TGI (LOX IMVI melanoma) was 6.09 µM, the GI50 (A549 NSCLC) was 1.97 µM and the TGI (A549 NSCLC) was 21.4 µM. It also gave a GI50 (BT-549 breast) of 1.08 µM, a TGI (BT-549 breast) of 11.2 µM and a GI50 (HT29 colon) of 1.03 µM. The TGI (HT29 colon) was 32 µM, the GI50 (M14 melanoma) was 1.19 µM and the TGI (M14 melanoma) was 8.76 µM. The GI50 (OVCAR-4 ovarian) was 1.14 µM, the TGI (OVCAR-4 ovarian) was 15.3 µM and the GI50 (MOLT-4 leukemia) was 0.36 µM. The TGI (MOLT-4 leukemia) was 3.46 µM, the GI50 (CCRF-CEM leukemia) was 0.8 µM and the TGI (CCRF-CEM leukemia) was 6.37 µM. For the same compound, the GI50 (NCI-H522 lung) was 2.54 µM, the TGI (NCI-H522 lung) was 11 µM and the GI50 (SF-268 CNS) was 2.49 µM. It also gave a TGI (SF-268 CNS) of 13.4 µM, a GI50 (MCF7 breast) of 0.246 µM and a TGI (MCF7 breast) of 2.72 µM. For the same compound, the GI50 (UO-31 renal) was 2.16 µM, the TGI (UO-31 renal) was 13.6 µM and the GI50 (SR leukemia) was 1.11 µM. It also gave a TGI (SR leukemia) of 4.9 µM, a GI50 (MALME-3M melanoma) of 1.47 µM and a TGI (MALME-3M melanoma) of 6.34 µM. The GI50 (K-562 leukemia) was 1.43 µM and the TGI (K-562 leukemia) was greater than 60.4 µM.
